Literature values as cited in paper PMC6428196 (Psychopharmacology, 2018).

How the values were obtained:
[1] = human, in vivo, sc
[2] = in vivo
baboons = settings: ref Holtyn et al. 2017

## CCCCCCCCCCCCCCCC(=O)N[C@@H](CCC(=O)NCCCC[C@H](NC(=O)[C@H](C)NC(=O)[C@H](C)NC(=O)[C@H](CCC(N)=O)NC(=O)CNC(=O)[C@H](CCC(=O)O)NC(=O)[C@H](CC(C)C)NC(=O)[C@H](Cc1ccc(O)cc1)NC(=O)[C@H](CO)NC(=O)[C@H](CO)NC(=O)[C@@H](NC(=O)[C@H](CC(=O)O)NC(=O)[C@H](CO)NC(=O)[C@@H](NC(=O)[C@H](Cc1ccccc1)NC(=O)[C@@H](NC(=O)CNC(=O)[C@H](CCC(=O)O)NC(=O)[C@H](C)NC(=O)[C@@H](N)Cc1cnc[nH]1)[C@@H](C)O)[C@@H](C)O)C(C)C)C(=O)N[C@@H](CCC(=O)O)C(=O)N[C@@H](Cc1ccccc1)C(=O)N[C@H](C(=O)N[C@@H](C)C(=O)N[C@@H](Cc1c[nH]c2ccccc12)C(=O)N[C@@H](CC(C)C)C(=O)N[C@H](C(=O)N[C@@H](CCCNC(=N)N)C(=O)NCC(=O)N[C@@H](CCCNC(=N)N)C(=O)NCC(=O)O)C(C)C)[C@@H](C)CC)C(=O)O [liraglutide]
[1]
  Bioavailability: 55%
[2]
  Brain penetration after systemic administration: penetrate the brain

## O=C1CC[C@@]2(O)[C@H]3Cc4ccc(O)c5c4[C@@]2(CCN3CC2CC2)[C@H]1O5 [naltrexone]
baboons
  Drinking: reduced drinking to a degree comparable to our liraglutide effect
